Data on 31 compounds can be found in patent US6413960B1, “Substituted pyrazolyl benzenesulfonamides for the treatment of asthma” (G.D. Searle & Co., priority 1993, dated 2002).

pIC50: −log10 of the molar value. Read-outs that look alike come from different tables or passages of the source.

One series deals with T1, Human COX II (Homo sapiens, UniProt P35354).
T1 construct: A 2.0 kb fragment containing the coding region of either human or murine COX-I or human or murine COX-II; made in house; host or cells: SF9 insect cells (baculovirus, transfer vector pVL1393)
T1 sequence (P35354 18-604): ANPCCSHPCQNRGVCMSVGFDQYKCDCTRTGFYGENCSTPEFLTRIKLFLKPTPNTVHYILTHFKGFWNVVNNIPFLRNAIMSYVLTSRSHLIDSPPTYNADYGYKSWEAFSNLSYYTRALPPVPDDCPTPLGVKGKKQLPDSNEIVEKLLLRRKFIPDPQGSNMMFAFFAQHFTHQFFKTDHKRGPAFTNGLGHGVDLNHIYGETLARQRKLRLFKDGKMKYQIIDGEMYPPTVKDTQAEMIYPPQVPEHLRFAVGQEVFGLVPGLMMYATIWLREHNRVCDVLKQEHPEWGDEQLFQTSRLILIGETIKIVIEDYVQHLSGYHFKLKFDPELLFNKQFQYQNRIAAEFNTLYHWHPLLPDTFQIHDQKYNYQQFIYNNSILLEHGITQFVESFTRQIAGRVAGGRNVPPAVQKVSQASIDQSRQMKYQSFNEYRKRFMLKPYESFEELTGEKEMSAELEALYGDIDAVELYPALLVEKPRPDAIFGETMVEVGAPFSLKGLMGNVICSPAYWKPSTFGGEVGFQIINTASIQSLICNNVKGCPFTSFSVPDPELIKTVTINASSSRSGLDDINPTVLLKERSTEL
As to the kind of experiment: Assay for COX II activity in vitro (PGE2 ELISA, recombinant enzyme). The class given is biochemical. As to conditions: read-out: Human COX II ID50.

A further series deals with T2, Human COX I (Homo sapiens, UniProt P23219).
T2 construct: A 2.0 kb fragment containing the coding region of either human or murine COX-I or human or murine COX-II; made in house; host or cells: SF9 insect cells (baculovirus, transfer vector pVL1393)
T2 sequence (P23219 24-599): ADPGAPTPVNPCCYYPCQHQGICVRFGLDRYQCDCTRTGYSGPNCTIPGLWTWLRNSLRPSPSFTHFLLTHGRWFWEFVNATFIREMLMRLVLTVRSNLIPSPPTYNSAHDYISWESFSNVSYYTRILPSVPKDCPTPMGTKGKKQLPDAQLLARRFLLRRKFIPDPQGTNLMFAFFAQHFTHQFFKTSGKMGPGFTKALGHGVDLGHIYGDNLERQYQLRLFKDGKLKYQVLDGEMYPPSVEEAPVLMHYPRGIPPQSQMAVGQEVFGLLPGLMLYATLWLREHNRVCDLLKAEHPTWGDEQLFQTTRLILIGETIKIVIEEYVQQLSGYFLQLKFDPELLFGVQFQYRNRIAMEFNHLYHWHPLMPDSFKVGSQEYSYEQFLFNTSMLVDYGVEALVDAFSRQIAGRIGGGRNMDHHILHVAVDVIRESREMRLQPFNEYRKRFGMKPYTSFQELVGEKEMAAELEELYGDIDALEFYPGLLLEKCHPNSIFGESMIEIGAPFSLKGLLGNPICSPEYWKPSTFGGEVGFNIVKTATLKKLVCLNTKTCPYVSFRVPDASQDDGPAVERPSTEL
Put plainly: Assay for COX I activity in vitro (PGE2 ELISA, recombinant enzyme). The class given is biochemical. On the technique in general: An ELISA detects its analyte on a solid surface through an enzyme-linked reagent.

The subject of series [1] is Male Sprague-Dawley rats (carrageenan foot edema). The conditions noted are these: oral, foot volume 3 h after carrageenan; for RAT PAW EDEMA % Inhibition (* Assay performed at 30 mg/kg body weight): 30 mg/kg body weight (values marked *). (In general: Carrageenan injected into the paw causes an acute inflammation.)
Description: Rat Carrageenan Foot Pad Edema Test
Male Sprague-Dawley rats were selected in each group so that the average body weight was as close as possible. Rats were fasted with free access to water for over sixteen hours prior to the test. […] One hour later a subplantar injection of 0.1 mL of 1% solution of carrageenan/sterile 0.9% saline was administered and the volume of the injected foot was measured with a displacement plethysmometer connected to a pressure transducer with a digital indicator. Three hours after the injection of the carrageenan, the volume of the foot was again measured.

Description for Human COX II: The COX II inhibition activity of the compounds of this invention illustrated in the Examples was determined by the following methods.

With `COc1c(Cl)cc(-c2cc(C(F)(F)F)nn2-c2ccc(S(N)(=O)=O)cc2)cc1Cl` [Example 3, 4-[5-(3,5-Dichloro-4-methoxyphenyl)-3-(trifluoromethyl)-1H-pyrazol-1-yl]benzenesulfonamide], the pIC50 on Human COX II is greater than 7.00.

`C=CCc1cc(-c2cc(C(F)(F)F)nn2-c2ccc(S(N)(=O)=O)cc2)ccc1OC` [Example 6, 4-[5-(3-(3-Propenyl)-4-methoxyphenyl)-3-(trifluoromethyl)-1H-pyrazol-1-yl]benzenesulfonamide]: the pIC50 at Human COX I is 4.10.

With `CCCc1cc(-c2cc(C(F)(F)F)nn2-c2ccc(S(N)(=O)=O)cc2)ccc1OC` [Example 7, 4-[5-(3-Propyl-4-methoxyphenyl)-3-(trifluoromethyl)-1H-pyrazol-1-yl]benzenesulfonamide], the pIC50 at Human COX II is 4.85.

With `COc1ccc(-c2cc(C(F)(F)F)nn2-c2ccc(S(N)(=O)=O)cc2)cc1CC1CC1` [Example 8, 4-[5-(3-Cyclopropylmethyl-4-methoxyphenyl)-3-(trifluoromethyl)-1H-pyrazol-1-yl]benzenesulfonamide], on Human COX II, the pIC50 is 4.42.

As to `NS(=O)(=O)c1ccc(-n2nc(C(F)F)cc2-c2ccc3c(c2)OCO3)cc1` [Example 82, 4-[5-(1,3-Benzodioxol-5-yl)-3-(difluoromethyl)-1H-pyrazol-1-yl]benzenesulfonamide], the “RAT PAW EDEMA % Inhibition (* Assay performed at 30 mg/kg body weight)” value in series [1] is reported as 22* %.

As to `COC(=O)c1cc(-c2cc(F)c(OC)c(F)c2)n(-c2ccc(S(N)(=O)=O)cc2)n1` [Example 84, Methyl 1-(4-aminosulfonylphenyl)-5-(3,5-difluoro-4-methoxyphenyl)-1-H-pyrazole-3-carboxylate], the pIC50 was 4.18 at Human COX I (read-out: Human COX I ID50) and greater than 7.00 on Human COX II.

Compound `COC(=O)c1cc(-c2ccc(Cl)cc2)n(-c2ccc(S(N)(=O)=O)cc2)n1` [Example 85, Methyl [1-(4-aminosulfonylphenyl)-5-(4-chlorophenyl)-1H-pyrazole-3-yl]carboxylate] registered a melting point of 227 °C. The pIC50 at Human COX II was 4.13.

Regarding `CCOC(=O)c1cc(-c2ccc(Cl)cc2)n(-c2ccc(S(N)(=O)=O)cc2)n1` [Example 86, Ethyl [1-(4-aminosulfonylphenyl)-5-(4-chlorophenyl)-1H-pyrazole-3-yl]carboxylate], the pIC50 on Human COX II was 6.30.

`NC(=O)c1cc(-c2ccc(Cl)cc2)n(-c2ccc(S(N)(=O)=O)cc2)n1` [Example 96] came in with a melting point of 108 to 110 °C. Besides, the pIC50 on Human COX II is 5.19.

For `NS(=O)(=O)c1ccc(-n2nc(C(=O)Nc3cccc(Cl)c3)cc2-c2ccc(F)cc2)cc1` [Example 98, N-(3-Chlorophenyl)-[1-(4-aminosulfonylphenyl)-5-(4-fluorophenyl)-1H-pyrazol-3-yl]carboxamide], the “RAT PAW EDEMA % Inhibition (* Assay performed at 30 mg/kg body weight)” value in series [1] is given as 2* %.

For `N#Cc1cc(-c2ccc(F)cc2)n(-c2ccc(S(N)(=O)=O)cc2)n1` [Example 117], the “RAT PAW EDEMA % Inhibition @ 10 mg/kg body weight” value in series [1] is 32%.

Turning to `COc1ccc(-c2cc(C(Cl)Cl)nn2-c2ccc(S(N)(=O)=O)cc2)cc1F` [Example 130, 4-[3-(Dichloromethyl)-5-(3-fluoro-4-methoxyphenyl)-1H-pyrazol-1-yl]benzenesulfonamide], the melting point lay within 190 to 193 °C. Moreover, the pIC50 at Human COX I (read-out: Human COX I ID50) is 4.90. For the same compound, the pIC50 on Human COX II is 5.44.

For the compound `NS(=O)(=O)c1ccc(-n2nc(C(F)F)cc2-c2cnccn2)cc1` [Example 137, 4-[5-(2-Pyrazinyl)-3-(difluoromethyl)-1H-pyrazol-1-yl]benzenesulfonamide], the melting point fell in the range of 191 to 194 °C.

Consider `Cc1c(-c2cc(C(F)(F)F)nn2-c2ccc(S(N)(=O)=O)cc2)ccc2c1OCO2` [Example 138, 4-[5-(4-methyl-1,3-benzodioxol-5-yl)-3-(trifluoromethyl)-1H-pyrazol-1-yl]benzenesulfonamide], for which the figures for the pIC50 at Human COX I (read-out: Human COX I ID50) and at Human COX II were greater than 7.00 and 6.22, respectively.

With `NS(=O)(=O)c1ccc(-n2nc(CCCO)cc2-c2ccccc2)cc1` [Example 172, 4-[5-Phenyl-3-(3-hydroxypropyl)-1H-pyrazol-1-yl]benzenesulfonamide], the pIC50 at Human COX II is 5.38.

As to `NS(=O)(=O)c1ccc(-n2nc(CCCO)cc2-c2ccc(F)cc2)cc1` [Example 173, 4-[5-(4-Fluorophenyl)-3-(3-hydroxypropyl)-1H-pyrazol-1-yl]benzenesulfonamide], the pIC50 at Human COX II was 5.33.

`NS(=O)(=O)c1ccc(-n2nc(CCC(=O)O)cc2-c2ccc(F)cc2)cc1` [Example 174] came in with a melting point of 180 to 182 °C. Also, the pIC50 at Human COX II is 5.46.

Regarding `CCOC(=O)C(C#N)=Cc1cc(-c2ccccc2)n(-c2ccc(S(N)(=O)=O)cc2)n1` [Example 176, Ethyl 3-[1-[4-(aminosulfonyl)phenyl]-5-phenyl-1H-pyrazol-3-yl]-2-cyano-2-propenoate], the pIC50 on Human COX II was 6.52.

`NS(=O)(=O)c1ccc(-n2nc(C=NOCc3ccccc3)cc2-c2ccc(Cl)cc2)cc1` [Example 177, 4-[5-(4-Chlorophenyl)-3-[[(phenylmethoxy)imino]methyl]-1H-pyrazol-1-yl]benzenesulfonamide] gave a melting point of 158 to 159 °C.

For `NS(=O)(=O)c1ccc(-n2nc(C(F)(F)F)c3c2-c2ccccc2CC3)cc1` [Example 187, 4-[4,5-Dihydro-3-(trifluoromethyl)-1H-benz[g]indazol-1-yl]benzenesulfonamide], the melting point lay in the range of 257 to 258 °C.

Turning to `Cc1ccc2c(c1)CCc1c(C(F)(F)F)nn(-c3ccc(S(N)(=O)=O)cc3)c1-2` [Example 188, 4-[4,5-Dihydro-7-methyl-3-(trifluoromethyl)-1H-benz[g]indazol-1-yl]benzenesulfonamide], the melting point lay within 215 to 218 °C. Further, the pIC50 on Human COX I (read-out: Human COX I ID50) was 4.70.

Turning to `NS(=O)(=O)c1ccc(-n2nc(C(F)(F)F)c3c2-c2ccsc2CC3)cc1` [Example 196, 4-[4,5-Dihydro-3-(trifluoromethyl)-1-H-thieno[3,2-g]indazol-1-yl]benzenesulfonamide], the melting point is 288 to 290 °C. The pIC50 on Human COX I (read-out: Human COX I ID50) is 5.39. Also, the pIC50 on Human COX II was 6.22.

For `NS(=O)(=O)c1ccc(-n2ncc(Cl)c2-c2ccc(Cl)cc2)cc1` [Example 197, 4-[5-(4-Chlorophenyl)-4-chloro-1H-pyrazol-1-yl]benzenesulfonamide], the melting point is 168 to 171 °C (dec.). The “RAT PAW EDEMA % Inhibition (* Assay performed at 30 mg/kg body weight)” value in series [1] is on record as 45* %.

`NS(=O)(=O)c1ccc(-n2nc(C(F)(F)F)c(Cl)c2-c2ccc(Cl)cc2)cc1` [Example 199, 4-[5-(4-Chlorophenyl)-3-(trifluoromethyl)-4-chloro-1H-pyrazol-1-yl]benzenesulfonamide]: in series [1], the “RAT PAW EDEMA % Inhibition @ 10 mg/kg body weight” value is given as 35%.

In turn, `Cc1c(C(F)(F)F)nn(-c2ccc(S(N)(=O)=O)cc2)c1-c1ccccc1` [Example 201, 4-[4-Methyl-5-phenyl-3-(trifluoromethyl)-1H-pyrazol-1-yl]benzenesulfonamide] gave a melting point of 145 to 146 °C. Further, the pIC50 on Human COX I (read-out: Human COX I ID50) was 5.66. Further, at Human COX II, the pIC50 is greater than 7.00.

Compound `CCc1c(C(F)(F)F)nn(-c2ccc(S(N)(=O)=O)cc2)c1-c1ccc(OC)c(C)c1` [Example 202, 4-[4-Ethyl-5-(3-methyl-4-methoxyphenyl)-3-(trifluoromethyl)-1H-pyrazol-1-yl]benzenesulfonamide] displayed a melting point of 135 to 136 °C. The pIC50 at Human COX I (read-out: Human COX I ID50) is 4.04. Further, the pIC50 on Human COX II was greater than 7.00.

The compound `NS(=O)(=O)c1ccc(-n2nc(C(F)(F)F)c(C3CC3)c2-c2ccccc2)cc1` [Example 203, 4-[4-Cyclopropyl-5-phenyl-3-(trifluoromethyl)-1H-pyrazol-1-yl]benzenesulfonamide] registered a melting point of 173 to 174 °C. In addition, the pIC50 on Human COX II was 4.57.

Regarding `NS(=O)(=O)c1ccc(-n2nc(C(F)(F)F)c(CO)c2-c2ccccc2)cc1` [Example 204, 4-[4-hydroxymethyl-5-phenyl-3-(trifluoromethyl)-1H-pyrazol-1-yl]benzenesulfonamide], at Human COX II, the pIC50 was 5.17.

Take `CC(C)Cc1nn(-c2ccc(S(N)(=O)=O)cc2)c(-c2ccccc2)c1Cl` [Example 205, 4-(4-Chloro-3-isobutyl-5-phenyl-1H-pyrazol-1-yl)benzenesulfonamide]: the pIC50 on Human COX I (recombinant human COX I, arachidonic acid 10 μM, PGE2 ELISA, read-out: Human COX I ID50) was 5.68; on Human COX II (recombinant human COX II, arachidonic acid 10 μM, PGE2 ELISA) it was greater than 7.00.

In the case of `CN(C)C=NS(=O)(=O)c1ccc(-n2nc(C#N)c(Cl)c2-c2ccc(F)cc2)cc1` [Example 259], on Human COX II, the pIC50 is 5.96.

In the case of `CN(C)C=NS(=O)(=O)c1ccc(-n2nc(C#N)c(Br)c2-c2ccccc2)cc1` [Example 260, 4-[4-Bromo-3-cyano-5-phenyl-1H-pyrazol-1-yl]-N-[(dimethylamino)methylene]benzenesulfonamide], the pIC50 at Human COX II is 5.96.

One may read the melting point as the temperature, or range, at which the solid turns liquid.
